{"source": "patent US20250213563A1", "about": "“SUBSTITUTED PYRIMIDIN-4(3H)-ONES FOR USE IN TREATING CANCER” (NAVIRE PHARMA, INC., priority 2021, published 2025)", "key": {"[1]": {"target": "T1, phosphatase domain of human SHP2 (Homo sapiens, UniProt Q06124)", "T1 construct": "phosphatase domain of human SHP2 (amino acid Ala237-Ile529); 6xHis (TEV site) (N, cleaved yes); made in house; host or cells: E. coli BL21 (DE3)", "T1 sequence (Q06124 237-529)": "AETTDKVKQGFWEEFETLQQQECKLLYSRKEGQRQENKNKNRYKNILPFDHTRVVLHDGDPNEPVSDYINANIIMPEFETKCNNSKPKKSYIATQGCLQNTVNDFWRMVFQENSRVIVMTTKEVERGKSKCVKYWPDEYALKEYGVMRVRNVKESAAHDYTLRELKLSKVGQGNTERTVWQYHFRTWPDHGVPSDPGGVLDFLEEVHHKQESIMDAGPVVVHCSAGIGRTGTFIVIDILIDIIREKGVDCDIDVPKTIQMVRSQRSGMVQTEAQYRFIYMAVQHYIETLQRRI", "experiment": "SHP2 enzymatic assay (DiFMUP), phosphatase domain", "format": "biochemical", "settings": "at up to 50 μM", "experimental": "Protein purification: The recombinant DNA for full-length human SHP2 (amino acid 1-597) or the phosphatase domain of human SHP2 (amino acid Ala237-Ile529) was cloned into a pET30 vector (Sigma #69909-3), which was modified to contain a TEV protease site after the N-terminal 6×His tag. The expression vector was transformed into E. coli BL21 (DE3) (NEB #C2527H). The protein was expressed and purified by the following procedure. Bacterial cells from a 50 mL overnight culture were inoculated in 6 L of terrific broth media. Once the E. coli culture reached an OD600 of 0.7, the temperature was lowered to 18° C. and recombinant protein expression was induced by the addition of 0.5 mM IPTG. After overnight incubation, the cells were harvested by centrifugation at […] for 45 min in a Sorvall Lynx 6000 (Thermo Fisher) centrifuge with F9-6×1000 LEX rotor. The cell pellets were stored at −80° C. until purification. […] The final product was 98% pure as determined by SDS-PAGE. The concentration of SHP2 protein was determined from the absorbance at 280 nm wavelength, using the calculated molar extinction coefficient for SHP2 protein of 72770 M^−1 cm^−1.\nSHP2 enzymatic assay: Phosphatase activity of full-length human SHP2 wild-type enzyme or SHP2 phosphatase domain was measured using fluorogenic 6,8-difluoro-4-methylumbelliferyl phosphate (DiFMUP; Molecular Probes #D6567) as the substrate. […]"}, "[2]": {"experiment": "Monotherapy studies across panel of CDX models, tolerability", "format": "in vivo, immunocompromised mice", "settings": "100 mg/kg daily orally, 21 to 33 days, all CDX models", "experimental": "In vivo efficacy studies were conducted to evaluate the monotherapy anti-tumor activity of Compound (10b) across a panel of cell line-derived xenograft (CDX) models. […] Significant anti-tumor efficacy was also observed in two CDX models with acquired resistance to EGFR inhibitors."}, "[3]": {"tested_on": "KYSE-520 xenograft tumors", "experiment": "Pharmacodynamics in KYSE-520 xenograft tumors (DUSP6 / MPAS-plus mRNA)", "format": "in vivo, NSG mice", "settings": "for IC50: Mus musculus, KYSE-520, plasma concentration", "experimental": "KYSE-520 (EGFRamp) cells were subcutaneously implanted in NSG mice and allowed to grow to an average tumor volume of 340 mm^3 as monitored by caliper measurements. At this point, animals were randomized and treated with vehicle, Compound (10b) 25 mg/kg or Compound (10b) 100 mg/kg PO. Plasma and tumor samples were harvested 4, 16 and 24 hours after a single dose. Compound (10b) plasma concentration and tumor pERK levels were determined. Data represent mean±SEM. N=4 mice per group.\nIn addition to DUSP6 mRNA levels, other MAPK pathway genes were examined through sequencing analysis. The MPAS (MAPK pathway activity score) signature is a signature of 10 genes that reflects MAPK pathway activity. This gene signature has been used in the clinic to evaluate the pharmacodynamic effect of the ERK inhibitor GDC-0994 in tumors. Based on the MPAS signature, a 13-gene signature (“MPAS-plus”) was developed, which includes the 10 MPAS genes and three additional MAPK-targeted genes (ETV1, EGR1 and FOSL1) that are modulated by SHP2 inhibitors across multiple cell line models (data not shown)."}}, "note": "“Also recorded” adds a separate entry of the source. Read-outs that look alike come from different tables or passages of the source.", "data": [{"smiles": "Cc1c(N2CCC3(CC2)CO[C@@H](C)[C@H]3N)nc(C)n(-c2cccc(Cl)c2Cl)c1=O", "note": "(atropisomer, axis not shown; (Ra)) [Compound (10b), 6-((3S,4S)-4-amino-3-methyl-2-oxa-8-azaspiro[4.5]decan-8-yl)-3-(Ra)-(2,3-dichlorophenyl)-2,5-dimethylpyrimidin-4(3H)-one]", "values": [{"measurement": "suppression of enzymatic activity of SHP2 phosphatase domain", "setting": "[1]", "result": "did not suppress; also recorded: does not suppress"}, {"measurement": "impact of treatment on body weight", "setting": "[2]", "result": "no impact"}, {"measurement": "tolerability", "setting": "[2]", "result": "well tolerated"}, {"measurement": "suppression of DUSP6 mRNA levels in tumors", "setting": "[3]; 25 mg/kg PO, 4-hour after a single dose", "result": "> 90", "unit": "%"}, {"measurement": "suppression of DUSP6 mRNA levels in tumors", "setting": "[3]; 25 mg/kg PO, 16-hour after a single dose", "result": "< 50", "unit": "%"}, {"measurement": "suppression of DUSP6 mRNA levels in tumors", "setting": "[3]; 25 mg/kg or 100 mg/kg PO, 24-hour after a single dose", "result": "neither treatment significantly suppressed"}, {"measurement": "suppression of DUSP6 mRNA levels in tumors", "setting": "[3]; 100 mg/kg PO, 4-hour after a single dose", "result": "> 90", "unit": "%"}, {"measurement": "suppression of DUSP6 mRNA levels in tumors", "setting": "[3]; 100 mg/kg PO, 16-hour after a single dose", "result": "> 50", "unit": "%"}, {"measurement": "IC50", "setting": "[3]; PK/PD relationship, read-out: in vivo IC50", "result": 1500, "unit": "nM"}, {"measurement": "IC50", "setting": "[3]; read-out: KYSE-520 xenograft DUSP6 IC50", "result": 0.656, "unit": "µg/mL"}, {"measurement": "Cmax", "setting": "[3]; prediction used as reference line for human plasma levels, read-out: predicted efficacious Cmax", "result": 5.3, "unit": "µM"}, {"measurement": "suppression of the MPAS-plus signature in the tumor", "setting": "[3]; single oral dose or five doses, 25 mg/kg or 100 mg/kg", "result": "dose- and time-dependent suppression"}]}]}
